This assay concerns the target β-glucosidase B (BglB) (Paenibacillus polymyxa, UniProt P22505). Nature of the assay: hydrolysis monitored at […] nm, Michaelis-Menten nonlinear fit. The format is biochemical. As to conditions: 0-100 mM substrate, 15 min.

Each structure is given as a SMILES string.

Drawing on publication doi:10.1101/2025.11.24.690255v1 (biorxiv, 2025), this text covers Km for one compound.

Chain of β-glucosidase B (BglB) (P22505 whole entry): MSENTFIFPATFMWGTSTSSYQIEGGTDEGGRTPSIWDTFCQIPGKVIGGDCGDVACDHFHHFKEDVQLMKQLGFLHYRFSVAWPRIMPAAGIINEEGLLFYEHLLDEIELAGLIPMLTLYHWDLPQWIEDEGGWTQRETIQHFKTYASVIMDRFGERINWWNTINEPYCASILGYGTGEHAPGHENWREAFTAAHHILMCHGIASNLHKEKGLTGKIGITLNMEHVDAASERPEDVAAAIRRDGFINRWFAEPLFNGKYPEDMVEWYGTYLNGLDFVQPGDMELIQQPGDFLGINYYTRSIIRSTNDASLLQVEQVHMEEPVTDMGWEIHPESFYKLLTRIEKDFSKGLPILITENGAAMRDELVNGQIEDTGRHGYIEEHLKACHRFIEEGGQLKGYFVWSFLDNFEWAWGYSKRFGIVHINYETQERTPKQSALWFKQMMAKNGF

For orientation: Km means the concentration of substrate that gives half-maximal velocity. As for `O=[N+]([O-])c1ccc(O[C@@H]2O[C@H](CO)[C@@H](O)[C@H](O)[C@H]2O)cc1` [pPNG, 4-nitrophenyl-β-D-glucopyranoside], the Km is 5 ± 0.3 mM.
